Patent US20120021434A1, “METHOD FOR TREATING B CELL REGULATED AUTOIMMUNE DISORDERS” (Synta Pharmaceuticals Corp., priority 2005, published 2012)

Legend:
Type in all cases: cell-based
IκBβ = experiment: Inducible degradation of IκBβ (Western blot and FACS); conditions: IFN-γ/LPS or IFN-γ/SAC, 500 nM, 30 min and 2 hrs
Experimental: IκB degradation is one of the steps in the signaling pathway of NF-κB dependent genes. The activity of Compound 50 in inducible degradation of IκBα and IκBβ was investigated in THP-1 cells using Western blot and FACS analysis. […] Similar results were observed from the Compound 50 pre-treatment samples in which Compound 50 was added 30 min before stimulation.

p65 = experiment: Western blot of THP-1 nuclear extracts: p65; conditions: IFN-γ plus LPS or IFN-γ plus SAC
Experimental: The THP-1 cell, Jurkat cell and RAW264.7 cell line were obtained from American Type Culture Collection (Manassas, Va.). The THP-1 Jurkat cells were cultured in RPMI 1640 (ATCC, Manassas, Va.), supplemented with 10% FCS (ATCC, Manassas, Va.), and 1% penicillin/Streptomycin (Gibco-BRL, New York, N.Y.). The RAW264.7 cells were cultured in DMEM (ATCC, Manassas, Va.) supplemented with 10% FCS (ATCC, Manassas, Va.), and 1% penicillin/Streptomycin (Gibco-BRL, New York, N.Y.). The cells were stimulated with human or murine recombinant IFNγ (100 ng/ml) for 10 h followed by LPS (1 μg/ml) or SAC (0.025%) CpG ([…]) in the presence or absence of Compound 50 at different concentrations for an additional incubation.
THP-1 cells were suspended in 20 volumes of buffer A containing 10 mM KCl, 10 mM HEPES (pH 7.9), 1 mM MgCl2, 1 mM dithiothreitol (DTT), 0.1% Nonidet p40 (NP-40), and 0.5 mM phenylmethylsulfonyl fluoride (PMSF) and homogenized and centrifuged at 10,000 rpm at 4C afor 5 min. […]
Of the transcription factors that have been analyzed, two factors, ICSBP and c-Rel, seem to be affected by Compound 4/Compound 50 treatment. […]

IL-2 = experiment: Induction of IL-2 in PMA+ionomycin stimulated Jurkat T cells; conditions: previously shown
Rel-B = Rel-B nuclear translocation in IFNγ+LPS-stimulated THP1 cells (immunoblot); conditions: 100 nM, 6 h
Experimental: RelB and p52 are two members of Rel family, which are preferentially complexed with each other. To determine the effect of Compound 50 on p52 and Rel-B nuclear translocation, THP1 cells were stimulated with IFNγ+LPS in either the presence or absence of 100 nM Compound 50 and the distribution of p52 and Rel-B was determined by immunoblotting of nuclear at 6 h post-treatment.

c-Rel = target: T1, c-Rel (Mus musculus, UniProt P15307); experiment: Immunofluorescence of c-Rel nuclear accumulation in LPS-stimulated RAW264.7 cells; conditions: 100 nM
T1 construct: nuclear extracts from RAW cells stimulated with LPS/IFNγ; endogenous in cells; host or cells: RAW264.7
T1 sequence (P15307 whole entry): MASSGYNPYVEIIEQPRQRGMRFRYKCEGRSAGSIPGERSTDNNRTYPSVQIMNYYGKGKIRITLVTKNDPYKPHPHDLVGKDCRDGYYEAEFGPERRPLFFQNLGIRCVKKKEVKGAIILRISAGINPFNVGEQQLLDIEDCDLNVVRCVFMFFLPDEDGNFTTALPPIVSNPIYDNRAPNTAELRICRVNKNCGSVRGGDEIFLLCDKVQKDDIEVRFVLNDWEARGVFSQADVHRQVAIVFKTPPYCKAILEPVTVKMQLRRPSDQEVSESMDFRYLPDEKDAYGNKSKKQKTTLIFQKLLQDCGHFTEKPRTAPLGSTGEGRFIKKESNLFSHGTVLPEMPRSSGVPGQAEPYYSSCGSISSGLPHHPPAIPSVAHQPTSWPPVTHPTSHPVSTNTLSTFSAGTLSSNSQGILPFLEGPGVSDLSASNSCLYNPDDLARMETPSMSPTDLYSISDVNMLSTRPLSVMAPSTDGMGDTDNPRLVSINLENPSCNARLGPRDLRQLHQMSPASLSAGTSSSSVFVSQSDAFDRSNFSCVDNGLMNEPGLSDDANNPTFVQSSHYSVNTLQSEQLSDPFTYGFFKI
Experimental: We next examined whether compound 50 can block the accumulation of c-Rel in the nucleus of cells induced by LPS (FIG. 2). RAW264.7 cells cultured in DMEM with 10% BCS were split and seeded into 4-well chambered slides at 80,000 cells/well density. The cells were then treated with DMSO, Compound 50 (100 nM), LPS (Sigma, 5 μg/mL), LPS (5 μg/mL)+Compound 50 (100 nM) for 4 hours and fixed with 3% paraformaldehyde solution (1×PBS) after 1× quick rinse with 1×PBS. Fixed cells were permeablized with 0.2% TX100 and immunostained with anti-cRel antibody (SC70, Santa Cruz, 1:200 dilution) or anti-NF-κB p65 antibody (SC109, Santa Cruz, 1:100 dilution), and subsequently stained with Alexa Fluor 488 Goat-anti-Rabbit secondary antibody and DAPI (Molecular Probes, 1.1 μM). Images were obtained with CoolSNAP monochrome CCD camera on a Nikon inverted microscope TE300 using identical imaging parameters and were processed identically with Photoshop CS software. As observed previously, c-Rel localized to the cytoplasm in DMSO-treated cells and to the nucleus in LPS-treated cells. […] We also examined whether Compound 50 blocks the nuclear accumulation of another NF-κB/Rel family member, p65, in LPS-stimulated RAW cells (FIG. 3). As observed for c-Rel, p65 was localized to the cytoplasm in DMSO and Compound 50-treated cells and to the nucleus in LPS-stimulated cells. […]

ICSBP = ICSBP expression (Western blot)
Experimental: The 10% SDS Polyacrylamide gels (Inveitrogen) were transferred to Pure Nitrocellulose membrane (BioRed, Hercules, Calif.). The membranes were blocked with 5% milk in TBST buffer and incubated with anti-c-Rel, anti-p65, anti-p50, anti-ICSBP or anti-PU-1 antibody (all the antibodies were purchased from Santa Cruz) at a dilution of 1:500 for 1 h at room temperature or overnight at 4C. The membranes were washed and incubated with Horseradish Peroxidase-conjugated anti-rabbit IgG or anti-mouse IgG (Amersham, England) at a dilution of 1:2000 at room temperature for 1 h.
Of the transcription factors that have been analyzed, two factors, ICSBP and c-Rel, seem to be affected by Compound 4/Compound 50 treatment. ICSBP binds indirectly to the Ets-2 site. The primary NF-κB trans-activator for IL-12 is the c-Rel/p50 heterodimer. Other dimers (p65/p50 and p50/p50) either lack activity or have inhibitory functions. Thus, c-Rel plays a role in IL-12 transcription as a result of both activation through NF-κB and its interaction with ICSBP. […] The membranes were blocked with 5% milk in TBST buffer and then incubated with anti-c-Rel, anti-p65, anti-p50, anti-ICSBP or anti-PU-1 antibody (all the antibodies were purchased from Santa Cruz) at a dilution of 1:500 for 1 h at room temperature or overnight at 4° C. The membranes were washed and incubated with Horseradish Peroxidase-conjugated anti-rabbit IgG or anti-mouse IgG (Amersham, England) at a dilution of 1:2000 at room temperature for 1 h.
ICSBP, whose expression was reduced by Compound 50, was over-expressed using co-transfection with the IL-12 promoter-Luc report system. The over-expression construct of ICSBP was generated by PCR from cDNA of human PBMC using primers as follow: ICSBP-exp-F: 5′-[…]-3′ (SEQ ID NO:1) and ICSBP-exp-R: 5′-[…]-3′ (SEQ ID NO:2), the resulting PCR products was ligated to pCI vector (Promega).

Cc1cccc(/C=N/Nc2cc(N3CCOCC3)nc(OCCc3ccccn3)n2)c1 [Compound 50, N-(3-Methyl-benzylidene)-N′-[6-morpholin-4-yl-2-(2-pyridin-2-yl-ethoxy)-pyrimidin-4-yl]-hydrazine]
amount of IκBβ in the cytoplasm, with vs without compound (IκBβ): no significant difference
nuclear p65 protein (p65): increased
induction of the c-Rel dependent cytokine IL-2 (IL-2): impairs
nuclear Rel-B (Rel-B): slightly increased
LPS-induced accumulation of c-Rel in the nucleus (c-Rel; RAW264.7, LPS 5 μg/mL, 4 hours): inhibited
nuclear/cytoplasmic distribution of c-Rel (c-Rel; RAW264.7, absence of LPS, 4 h): did not alter
ICSBP expression (ICSBP): reduced
transcription factor ICSBP affected by treatment (ICSBP; of the transcription factors analyzed): affected
